Experimental data from patent US20110191897A1, “Plants Tolerant to HPPD Inhibitor Herbicides” (Bayer CropScience AG, priority 2009, published 2011).
Where “and” joins values, the source holds several entries; their conditions need not be identical. Equal values may be shown once.

Assays:
[1] = system: tobacco calli containing HPPD SEQ ID No. 7 (Blepharisma japonicum); assay: Rooting of transformed tobacco calli on tembotrione media; assay type: cell-based, Nicotiana tabacum; conditions: 6 to 12 weeks
Method: The leaf disks were co-cultivated for 2 days with Agrobacterium tumefaciens cells containing either the binary vector FMP37ebv or AtHPPDbv. Then the leaf disks were transferred to a media allowing the regeneration of shoots for 6 weeks on MS (Musharige and Skoog, (1962), Physiol Plant 15(3): 473-497) media supplemented with BAP (1 mg/mL; Benzylaminopurine), carbenicillin (250 mg/mL), cefotaxine (250 mg/mL), kanamycin (75 mg/mL) and tembotrione (10^−6 M)
Regenerated calli were transferred on media to induce the development of roots for 6 to 12 weeks: MS (½), supplemented with carbenicillin (250 mg/mL), cefotaxine (250 mg/mL), kanamycin (75 mg/mL), and tembotrione (10^−6 M).
Regenerated shoot calli from a cell transformed with a nucleic acid sequence encoding an HPPD comprising SEQ ID No. 11 (Arabidopsis thaliana) or SEQ ID No. 7 (Blepharisma japonicum) were transferred to a media inducing rot growth which media was further supplemented with the HPPD inhibitor tembotrione for 6 to 12 weeks.

[2] = system: T1 tobacco plants with Arabidopsis HPPD; assay: Glasshouse spray trial, herbicidal damage; assay type: in vivo, Nicotiana tabacum; conditions: 100 gAl/ha, 7DAT
Method: (§1) T0 Tobacco plants containing either the gene from Arabidopsis coding for HPPD or the gene FMP37e from Blepharisma japonicum coding for FMP37 HPPD, mentioned above (Example 3), were transferred to the glasshouse (28/20° C.), to develop further and produce seeds. Those seeds were harvested and put on soil (ED73 mixed with sand and osmocote Pro) to germinate in the glasshouse (28/20° C.). Three to four weeks later, plantlets were transferred to single pots containing the soil mentioned above. Two weeks later, plants of a size 4-6 cm diameter were sprayed with either • tembotrione at 100 Al/ha prepared from a WP20 (wettable powder 20%) formulation supplemented with ammonium sulfate and methyl ester raps oil, or • isoxaflutole at 100 Al/ha prepared from a WP20 formulation supplemented with ammonium sulfate and methyl ester raps oil, or • bicyclopyrone at 100 gAl/ha prepared from a WP20 formulation supplemented with ammonium sulfate and methyl ester raps oil, or • “blind formulation” made from a WP20 formulation without active ingredient (Al) supplemented with ammonium sulfate and methyl ester raps oil, and were then transferred to a growth chamber with adequate light conditions (20000Lux).

[3] = system: T1 tobacco plants with FMP37e coding for the HPPD FMP37; assay: Glasshouse spray trial, herbicidal damage; assay type: in vivo, Nicotiana tabacum; conditions: line 113, individual plants, 100 gAl/ha, 7DAT
Method: as §1

[4] = system: rice shoots transformed with FMP37e; assay: Bleaching of transformed rice shoots on MS/2 with tembotrione; assay type: in vivo; conditions: 2 weeks
Method: Rice transformation is achieved using methods well known in the art. Briefly, the Agrobacterium tumefaciens mediated transformation of rice was performed using immature embryos, from the restorer line 6G4317. Briefly, panicles from donor plants were harvested 8-12 days after pollination. The lemma of the immature seed was removed. Seeds were thereafter sterilized using a NaOCl based solution and Tween. The seeds were preinduced with acetylsalicylic acid. Agrobacterium tumefaciens cells were then co-cultivated with the preinduced seeds in presence of acetosyringone for 4 days at 24° C. in the dark. Thereafter, coleoptile from embryos were removed and washed, then put on a media supplemented with phosphinothricin for 3 weeks at 28° C. under a photoperiod rhythm of 16 hours. Then the growing calli were cut off from the embryos, and transferred to fresh media containing triacillin, phosphinothricin, L-proline and copper (II) sulfate.
For each callusline and per Tembotrione concentration, 3 shoots, and randomly isolated from different callus pieces, were transferred to MS/2 with Tembotrione. As a general rule, transfer of the shoots from regeneration medium to MS/2 occurred 9 weeks after calli had been put on regeneration medium.
Cultures were incubated at 26.5° C. (16 hrs. photoperiod) and evaluation of symptoms occurred 2 weeks later.
New developing leaves of the shoots transferred have been scored on the basis of bleaching and categorized in 3 groups:
a) no bleaching b) intermediate bleaching c) complete bleaching
Within the category ‘intermediate bleaching’ a distinction has been made between shoots having new leaves showing only very little bleaching symptoms and thus tending to green leaves, and shoots with new leaves almost completely bleached.

[5] = system: soybean events expressing the FMP37 HPPD protein; assay: Soybean greenhouse treatment with tembotrione; assay type: in vivo; conditions: 100 g Al/ha, eight events
Method: Plants containing the transgene were then sprayed with HPPD inhibitor herbicides, as for example with tembotrione at a rate of 100 g Al/ha. Ten days after the application the symptoms due to the application of the herbicide were evaluated and compared to the symptoms observed on a wild type plants under the same conditions.
Eight events expressing the FMP37 HPPD protein have been generated from the green shoots of above and were transferred to the greenhouse. Four weeks after acclimation, i.e. plants at a developmental stage of 3-4 internodes were treated with 100 g Al/ha tembotrione prepared from a WP 20 formulation supplemented with ammonium sulfate and methyl ester raps oil. Ten days after application, the symptoms caused by the application of the HPPD inhibitor herbicide were evaluated and compared to the symptoms observed on treated non-transgenic wild-type soybean plants.

[6] = system: tobacco plants with FMP37t-h, PAT and 2mEPSPS (pFCO112); assay: Glasshouse trial of tobacco with three tolerance genes; assay type: in vivo, Nicotiana tobacum; conditions: 9 DAT
Method: A binary vector for tobacco transformation is, for example, constructed with the CaMV35 promoter driving the expression of the gene FMP37t-h (SEQ ID No. 15), with a codon usage optimized for the expression in dicotyledoneous plants and at its 5′ extremity was added a sequence coding for an OTP, and further upstream a sequence TEV (Tobacco etch virus) to improve the stability of the mRNA in plants followed by the CaMV35S terminator. The nucleotide sequence of the gene FMP37t-h is given in SEQ ID No. 15. Additionally, the transformation vector also contains a PAT gene cassette in which the gene is driven by a CaVM35S promoter and followed by a CaMV35S terminator for glufosinate based selection during the transformation process and a 2mEPSPS gene cassette in which the gene is driven by an histone promoter from Arabidopsis to confer tolerance to the herbicide glyphosate to the transformed plants (see FIG. 3 H). The binary vector was called pFCO112. The above vector was used to transform leaf disks obtained from Nicotiana tobacum plants, according to Example 3.
Transgenic tobacco plants were transferred to the greenhouse and treated with glyphosate at a rate of 1121 g Al/ha. Seeds were produced from such tolerant tobacco plants and harvested. These seeds were put on soil to germinate in the glasshouse. Three to four weeks later, 50 plantlets per event were transferred to single pots. Two weeks later, plants of a size 4-6 cm were sprayed either with:
[…] […] Non-transgenic tobacco plants were completely killed by treatment using one or more of the above herbicides.

SMILES: CS(=O)(=O)c1ccc(C(=O)C2C(=O)CCCC2=O)c(Cl)c1COCC(F)(F)F [Tembotrione, 2-[2-chloro-4-(methylsulfonyl)-3-[(2,2,2,-tri-fluoroethoxy)methyl]benzoyl]-1,3-cyclo-hexanedione]
- % Elongation & rooting on 10^−6M tembotrione [1]: 65%
- % injury ([2]; line 252, individual plants): 40%
- % injury ([2]; line 258, individual plants): 100%
- % injury ([2]; line 327, individual plants): 40% and 50%
- % injury [3]: 5% and 10% (2×) and 40% and 70%
- N° of shoots completely bleached ([4]; 1 μM): 17
- N° of shoots with intermediate bleaching ([4]; 1 μM): 24
- N° of shoots completely bleached ([4]; 5 μM): 43
- N° of shoots with intermediate bleaching ([4]; 5 μM): 17
- events with bleaching like non-transgenic wild-type soybean plant [5]: two events
- events with local transitory bleaching symptoms, recovered completely 7 days after application [5]: One other event
- events with transitory light bleaching symptoms, recovered 14 days after application [5]: One event
- events without any bleaching phenotype ([5]; ten days after application): Four of the eight events
- number of plants in Class I (no injuries) ([6]; line 634, 100 g AI/ha): 0
- number of plants in Class II (injury: 10-40%) ([6]; line 634, 100 g AI/ha): 3
- number of plants in Class III (injury: 41-100%) ([6]; line 634, 100 g AI/ha): 7
- number of plants in Class I (no injuries) ([6]; line 713, 100 g AI/ha): 0
- number of plants in Class II (injury: 10-40%) ([6]; line 713, 100 g AI/ha): 6
- number of plants in Class III (injury: 41-100%) ([6]; line 713, 100 g AI/ha): 4
